Assays:
Assay type in all cases: toxicity, cell-based
HEK-293T = experiment: Incucyte cell viability with HEK293T; details: human, 10 µM, compound concentration 10 uM
Fibroblast = experiment: Incucyte cell viability with human fibroblast; details: 10 µM, compound concentration 10 uM
U2OS = experiment: Incucyte cell viability with U2OS; details: human, 10 µM, compound concentration 10 uM
[1] = 0 h, replicate number 1, timepoint 0 hours
[2] = 0 h, replicate number 2, timepoint 0 hours
[3] = 6 h, replicate number 1, timepoint 6 hours
[4] = 6 h, replicate number 2, timepoint 6 hours
[5] = 12 h, replicate number 1, timepoint 12 hours
[6] = 12 h, replicate number 2, timepoint 12 hours
[7] = 18 h, replicate number 1, timepoint 18 hours
[8] = 18 h, replicate number 2, timepoint 18 hours
[9] = 24 h, replicate number 1, timepoint 24 hours
[10] = 24 h, replicate number 2, timepoint 24 hours
Note: unitless GR value; below 1 slowed growth and below 0 cell loss.

Row | SMILES | Growth Rate (HEK-293T; [1]) | Growth Rate (HEK-293T; [2]) | Growth Rate (HEK-293T; [3]) | Growth Rate (HEK-293T; [5]) | Growth Rate (HEK-293T; [6]) | Growth Rate (HEK-293T; [7]) | Growth Rate (HEK-293T; [9]) | Growth Rate (HEK-293T; [10]) | Growth Rate (Fibroblast; [1]) | Growth Rate (Fibroblast; [2]) | Growth Rate (Fibroblast; [5]) | Growth Rate (Fibroblast; [6]) | Growth Rate (Fibroblast; [9]) | Growth Rate (U2OS; [1]) | Growth Rate (U2OS; [3]) | Growth Rate (U2OS; [5]) | Growth Rate (U2OS; [8]) | Growth Rate (U2OS; [9]) | Growth Rate (U2OS; [2]) | Growth Rate (U2OS; [7]) | other results
1 | Nc1nc(Nc2ccccc2)nc2c1ncn2[C@@H]1O[C@H](CO)[C@@H](O)[C@H]1O | 0.49 | -0.14 | 0.52 | 0.7 | 0.63 | 0.76 | 0.85 | 0.9 | 0.77 | 0.2 | 0.83 | 0.96 | 0.93 | 0.4 | 0.95 | 0.84 | 0.91 | 0.93 | – | – | Growth Rate (HEK-293T; [4]): 0.76; Growth Rate (HEK-293T; [8]): 0.95
2 | NCCc1c[nH]c2ccc(C(N)=O)cc12.O=C(O)/C=C\C(=O)O | 0.4 | -0.18 | 0.61 | 0.96 | – | 0.9 | 0.9 | – | 0.89 | -0.08 | – | – | – | -0.1 | 0.87 | – | – | 0.83 | 0.34 | 0.89 | Growth Rate (Fibroblast; [8]): 0.95
3 | Brc1c(N=C2NCCN2)ccc2nccnc12.O=C(O)C(O)C(O)C(=O)O | 0.76 | 0.92 | 0.47 | 0.79 | 0.72 | 0.92 | 0.83 | 0.88 | – | 0.6 | 0.82 | 0.94 | 0.87 | 0.29 | 0.6 | 0.41 | 0.91 | 0.89 | – | 0.78 | Growth Rate (HEK-293T; [4]): 0.95; Growth Rate (Fibroblast; [3]): 0.39; Growth Rate (Fibroblast; [4]): 0.7; Growth Rate (Fibroblast; [7]): 0.86; Growth Rate (Fibroblast; [8]): 0.83; Growth Rate (Fibroblast; [10]): 0.91
4 | O=C1[C@H](Cc2ccc(O)cc2)N2C(=O)CCN(C(=O)NCc3ccccc3)[C@H]2CN1Cc1cccc2ccccc12 | 0.98 | 0.37 | -0.42 | -0.35 | -0.29 | -0.29 | -0.24 | -0.21 | 0.78 | 0.82 | -0.6 | -0.16 | -0.54 | -0.65 | 0.4 | 0.14 | 0.51 | 0.3 | 0.18 | 0.11 | Growth Rate (HEK-293T; [4]): -0.2; Growth Rate (HEK-293T; [8]): -0.22; Growth Rate (Fibroblast; [3]): -0.77; Growth Rate (Fibroblast; [4]): 0.03; Growth Rate (Fibroblast; [7]): -0.71; Growth Rate (Fibroblast; [8]): -0.07; Growth Rate (Fibroblast; [10]): -0.02; Growth Rate (U2OS; [4]): 0.87; Growth Rate (U2OS; [6]): 0.6; Growth Rate (U2OS; [10]): 0.57
5 | COc1c(C)cc(NC(=O)c2nn(Cc3ccc(F)cc3)c3c2CN(C(=O)c2ccc[nH]2)C[C@]3(C)C(N)=O)cc1C | 0.79 | – | 0.35 | 0.13 | – | 0.11 | 0.15 | – | 0.8 | 0.51 | -0.33 | 0.15 | -0.31 | -0.69 | 0.56 | 0.56 | 0.66 | 0.61 | -0.16 | 0.61 | Growth Rate (Fibroblast; [3]): -0.71; Growth Rate (Fibroblast; [4]): 0.46; Growth Rate (Fibroblast; [7]): -0.18; Growth Rate (Fibroblast; [8]): 0.32; Growth Rate (Fibroblast; [10]): 0.29; Growth Rate (U2OS; [4]): 0.73; Growth Rate (U2OS; [6]): 0.68; Growth Rate (U2OS; [10]): 0.67
6 | Cc1cc(C)cc([C@@H]2c3cc(C)ccc3NC(=O)CN2C(=O)c2ccc(Br)s2)c1 | 0.35 | 0.57 | 0.88 | 0.65 | 0.79 | 0.61 | 0.46 | 0.7 | 0.17 | 0.74 | – | – | 1 | – | – | – | 0.81 | – | – | 0.98 | Growth Rate (HEK-293T; [8]): 0.69; Growth Rate (U2OS; [10]): 0.89
7 | Cc1cc(C)cc([C@H]2c3cc(C)ccc3NC(=O)CN2C(=O)c2ccc(Br)s2)c1 | -0.3 | 0.03 | 0.95 | 0.79 | 0.81 | 0.58 | 0.65 | 0.83 | 0.07 | 0.88 | 0.6 | 0.64 | 0.33 | -0.56 | 0.12 | 0.65 | 0.88 | 0.67 | – | 0.52 | Growth Rate (HEK-293T; [8]): 0.92; Growth Rate (Fibroblast; [3]): 0.06; Growth Rate (Fibroblast; [7]): 0.44; Growth Rate (Fibroblast; [10]): 0.97; Growth Rate (U2OS; [10]): 0.94
8 | Cc1ccccc1N1CCN(S(=O)(=O)C[C@]23CC[C@H](C[C@@H]2NC(=O)[C@@H](N)CCS(C)(=O)=O)C3(C)C)CC1.Cl | 0.81 | 0.34 | 0.8 | 0.81 | 0.75 | 0.84 | 0.97 | 0.93 | 0.33 | 0.56 | – | 0.8 | – | -0.8 | 0.91 | 0.85 | – | 0.89 | -0.25 | 0.77 | Growth Rate (HEK-293T; [8]): 0.92; Growth Rate (Fibroblast; [8]): 0.91; Growth Rate (Fibroblast; [10]): 0.76; Growth Rate (U2OS; [10]): 1
9 | O=c1ccn([C@@H]2O[C@H](COP(=O)([O-])OP(=O)([O-])OP(=O)([O-])O)[C@@H](O)[C@H]2O)c(=O)[nH]1.[Na+].[Na+].[Na+] | 0.09 | 0.62 | 0.64 | 0.84 | 0.64 | 0.92 | 0.85 | 0.72 | – | 0.81 | 0.12 | 0.75 | 0.13 | 0.49 | 0.21 | 0.6 | 0.93 | 0.99 | 0.48 | 0.83 | Growth Rate (HEK-293T; [4]): 0.41; Growth Rate (HEK-293T; [8]): 0.75; Growth Rate (Fibroblast; [3]): 0.2; Growth Rate (Fibroblast; [4]): 0.66; Growth Rate (Fibroblast; [7]): 0.29; Growth Rate (Fibroblast; [8]): 0.88; Growth Rate (Fibroblast; [10]): 0.78; Growth Rate (U2OS; [4]): 0.83; Growth Rate (U2OS; [6]): 0.94; Growth Rate (U2OS; [10]): 0.94
10 | CCCCCC(O)/C=C/[C@H]1C(=O)CC(O)C1C/C=C\CCCC(=O)O (stereo partly drawn) | 0.99 | – | 0.68 | 0.59 | – | 0.69 | 0.58 | – | 0.39 | -0.28 | 0.36 | – | 0.54 | -0.23 | 0.59 | 0.59 | 0.78 | 0.72 | 0.05 | 0.66 | Growth Rate (Fibroblast; [3]): -0.61; Growth Rate (Fibroblast; [7]): 0.47; Growth Rate (U2OS; [6]): 0.84; Growth Rate (U2OS; [10]): 0.87
11 | CC(C)Oc1ccc(-c2c[nH]cc2CN(C)CCO)cc1 | 0.59 | 0.6 | – | – | – | – | 1 | – | 0.53 | 0.41 | – | – | – | -0.46 | 0.97 | 0.45 | – | 0.94 | 0.69 | 0.71 | –
